Assays:
Assay type in all cases: cell-based, murine and human
Settings in all cases: GAL4-PPAR LBD chimera
PPAR-gamma = target: T1, PPAR-gamma (UniProt P37231); experiment: PPAR-gamma transactivation assay (GAL4 chimera, luciferase reporter) in CV-1 cells
T1 sequence (P37231 1-505): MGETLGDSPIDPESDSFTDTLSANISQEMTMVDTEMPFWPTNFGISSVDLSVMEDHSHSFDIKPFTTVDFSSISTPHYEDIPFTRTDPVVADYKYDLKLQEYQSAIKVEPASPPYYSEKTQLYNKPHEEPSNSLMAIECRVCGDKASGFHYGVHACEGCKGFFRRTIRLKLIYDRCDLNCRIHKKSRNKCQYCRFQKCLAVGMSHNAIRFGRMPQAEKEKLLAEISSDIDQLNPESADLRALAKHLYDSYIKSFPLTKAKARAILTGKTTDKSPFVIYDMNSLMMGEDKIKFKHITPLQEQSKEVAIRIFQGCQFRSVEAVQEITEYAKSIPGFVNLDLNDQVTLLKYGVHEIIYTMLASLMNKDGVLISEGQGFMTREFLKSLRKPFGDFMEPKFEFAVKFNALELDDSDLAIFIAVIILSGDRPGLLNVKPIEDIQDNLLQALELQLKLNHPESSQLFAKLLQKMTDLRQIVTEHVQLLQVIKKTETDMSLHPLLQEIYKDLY
Excerpt: (§1) Compounds may be screened for functional potency in transient transfection assays in CV-1 cells for their ability to activate the PPAR subtypes (transactivation assay). A previously established chimeric receptor system was utilized to allow comparison of the relative transcriptional activity of the receptor subtypes on the same synthetic response element and to prevent endogenous receptor activation from complicating the interpretation of results. See, for example, Lehmann, J. M.; Moore, L. B.; Smith-Oliver, T. A; Wilkinson, W. O.; Willson, T. M.; Kliewer, S. A., An antidiabetic thiazolidinedione is a high affinity ligand for peroxisome proliferator-activated receptor […], J. Biol. Chem., 1995, 270, 12953-6. The ligand binding domains for murine and human PPAR-alpha, PPAR-gamma, and PPAR-delta are each fused to the yeast transcription factor GAL4 DNA binding domain. CV-1 cells were transiently transfected with expression vectors for the respective PPAR chimera along with a reporter construct containing four or five copies of the GAL4 DNA binding site driving expression of luciferase. After 8-16 h, the cells are replated into multi-well assay plates and the media is exchanged to phenol-red free DME medium supplemented with 5% delipidated calf serum. 4 hours after replating, cells were treated with either compounds or 1% DMSO for 20-24 hours. Luciferase activity was then assayed with Britelite (Perkin Elmer) following the manufacturer's protocol and measured with either the Perkin Elmer Viewlux or Molecular Devices Acquest (see, for example, Kliewer, S. A., et. al. Cell 1995, 83, 813-819). Rosiglitazone is used as a positive control in the PPARγ assay. Wy-14643 and GW7647 are used as positive controls in the PPARα assay. GW501516 is used as the positive control in the PPARδ assay.
(§2) Compounds of Examples 1-141 were assayed to measure their biological activity with respect to their EC50 values for modulating PPAR-alpha, PPAR-gamma, and PPAR-delta as set forth in Table 1.

PPAR-delta = target: T2, PPAR-delta (UniProt Q03181); experiment: PPAR-delta transactivation assay (GAL4 chimera, luciferase reporter) in CV-1 cells
T2 sequence (Q03181 1-441): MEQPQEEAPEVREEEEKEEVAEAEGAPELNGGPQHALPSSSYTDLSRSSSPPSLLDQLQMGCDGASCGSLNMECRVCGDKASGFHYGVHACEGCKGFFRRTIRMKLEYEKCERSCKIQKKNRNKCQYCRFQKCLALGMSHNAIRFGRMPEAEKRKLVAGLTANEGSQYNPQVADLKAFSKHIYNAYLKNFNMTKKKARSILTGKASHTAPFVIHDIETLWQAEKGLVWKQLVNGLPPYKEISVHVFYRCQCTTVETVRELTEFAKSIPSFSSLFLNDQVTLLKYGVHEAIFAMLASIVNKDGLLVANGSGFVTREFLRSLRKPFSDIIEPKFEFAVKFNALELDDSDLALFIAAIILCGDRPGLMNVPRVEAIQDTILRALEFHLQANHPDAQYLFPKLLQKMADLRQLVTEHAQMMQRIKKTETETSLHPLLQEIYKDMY
Excerpt: as §1, §2

PPAR-alpha = target: T3, PPAR-alpha (UniProt Q07869); experiment: PPAR-alpha transactivation assay (GAL4 chimera, luciferase reporter) in CV-1 cells
T3 sequence (Q07869 1-468): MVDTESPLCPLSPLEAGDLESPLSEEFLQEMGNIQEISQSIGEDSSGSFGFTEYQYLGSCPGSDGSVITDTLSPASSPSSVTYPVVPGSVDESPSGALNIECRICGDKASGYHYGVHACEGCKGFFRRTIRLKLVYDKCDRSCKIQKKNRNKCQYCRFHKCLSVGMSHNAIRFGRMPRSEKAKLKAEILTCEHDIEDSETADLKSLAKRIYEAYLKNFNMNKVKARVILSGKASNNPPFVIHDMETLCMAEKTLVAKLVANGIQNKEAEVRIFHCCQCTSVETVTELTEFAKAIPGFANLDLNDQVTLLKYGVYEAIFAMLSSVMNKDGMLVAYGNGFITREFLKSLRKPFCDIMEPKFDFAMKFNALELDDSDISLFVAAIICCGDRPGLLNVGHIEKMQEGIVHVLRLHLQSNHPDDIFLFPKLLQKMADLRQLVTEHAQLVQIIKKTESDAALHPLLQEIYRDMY
Excerpt: as §1, §2

Row | EC50 (PPAR-gamma) | EC50 (PPAR-delta) | EC50 (PPAR-alpha) | SMILES
1 | 5 to 100 µM | < 5 µM | > 100 µM | O=C(O)CC1Cc2cccc(S(=O)(=O)N3CCN(c4ccc(C(F)(F)F)cc4)CC3)c2C1 (stereo not drawn) [Example 2, {4-[4-(4-trifluoromethyl-phenyl)-piperazine-1-sulfonyl]-indan-2-yl}-acetic acid]
2 | 5 to 100 µM | 5 to 100 µM | 5 to 100 µM | O=C(O)CC1Cc2ccc(S(=O)(=O)N3CCN(c4ccc(Cl)c(Cl)c4)CC3)cc2C1 (stereo not drawn) [Example 3, {5-[4-(3,4-dichlorophenyl)-piperazine-1-sulfonyl]-indan-2-yl}-acetic acid]
3 | > 100 µM | 5 to 100 µM | > 100 µM | O=C(O)CC1Cc2cccc(S(=O)(=O)N3CCN(c4ccc(Cl)c(Cl)c4)CC3)c2C1 (stereo not drawn) [Example 4, {4-[4-(3,4-dichlorophenyl)-piperazine-1-sulfonyl]-indan-2-yl}-acetic acid]
4 | 5 to 100 µM | < 5 µM | 5 to 100 µM | O=C(O)C1Cc2ccc(S(=O)(=O)N3CCN(c4ccc(C(F)(F)F)cc4)CC3)cc2C1 (stereo not drawn) [Example 5, 5-[4-(4-trifluoromethyl-phenyl)-piperazine-1-sulfonyl]-indan-2-carboxylic acid]
5 | < 5 µM | < 5 µM | > 100 µM | O=C(O)C1Cc2cccc(S(=O)(=O)N3CCN(c4ccc(C(F)(F)F)cc4)CC3)c2C1 (stereo not drawn) [Example 6, 4-[4-(4-trifluoromethyl-phenyl)-piperazine-1-sulfonyl]-indan-2-carboxylic acid]
6 | 5 to 100 µM | < 5 µM | 5 to 100 µM | O=C(O)C1Cc2ccc(S(=O)(=O)N3CCN(c4ccc(Cl)c(Cl)c4)CC3)cc2C1 (stereo not drawn) [Example 7, 5-[4-(3,4-dichlorophenyl)-piperazine-1-sulfonyl]-indan-2-carboxylic acid]
7 | < 5 µM | < 5 µM | 5 to 100 µM | O=C(O)C1Cc2cccc(S(=O)(=O)N3CCN(c4ccc(Cl)c(Cl)c4)CC3)c2C1 (stereo not drawn) [Example 8, 4-[4-(3,4-dichlorophenyl)-piperazine-1-sulfonyl]-indan-2-carboxylic acid]
8 | 5 to 100 µM | < 5 µM | 5 to 100 µM | O=C(O)C1Cc2ccc(S(=O)(=O)N3CCN(c4ccc(C(F)(F)F)cn4)CC3)cc2C1 (stereo not drawn) [Example 9]
9 | 5 to 100 µM | < 5 µM | 5 to 100 µM | CC1(C(=O)O)Cc2ccc(S(=O)(=O)N3CCN(c4ccc(C(F)(F)F)cn4)CC3)cc2C1 (stereo not drawn) [Example 13, 2-methyl-5-[4-(5-trifluoromethyl-pyridin-2-yl)-piperazine-1-sulfonyl]-indan-2-carboxylic acid]
10 | 5 to 100 µM | 5 to 100 µM | > 100 µM | CC1(C(=O)O)Cc2cccc(S(=O)(=O)N3CCN(c4ccc(C(F)(F)F)cn4)CC3)c2C1 (stereo not drawn) [Example 14, 2-methyl-4-[4-(5-trifluoromethyl-pyridin-2-yl)-piperazine-1-sulfonyl]-indan-2-carboxylic acid]
11 | 5 to 100 µM | 5 to 100 µM | 5 to 100 µM | O=C(O)C1Cc2ccc(S(=O)(=O)N3CCN(c4cccc(C(F)(F)F)c4)CC3)cc2C1 (stereo not drawn) [Example 15, 5-[4-(3-trifluoromethyl-phenyl)-piperazine-1-sulfonyl]-indan-2-carboxylic acid]
12 | 5 to 100 µM | < 5 µM | 5 to 100 µM | O=C(O)C1Cc2cccc(S(=O)(=O)N3CCN(c4cccc(C(F)(F)F)c4)CC3)c2C1 (stereo not drawn) [Example 16, 4-[4-(3-trifluoromethyl-phenyl)-piperazine-1-sulfonyl]-indan-2-carboxylic acid]
13 | 5 to 100 µM | 5 to 100 µM | 5 to 100 µM | O=C(O)C1Cc2ccc(S(=O)(=O)N3CC=C(c4ccc(C(F)(F)F)cc4)CC3)cc2C1 (stereo not drawn) [Example 17, 5-[4-(4-trifluoromethyl-phenyl)-3,6-dihydro-2H-pyridine-1-sulfonyl]-indan-2-carboxylic acid]
14 | 5 to 100 µM | < 5 µM | 5 to 100 µM | O=C(O)C1Cc2cccc(S(=O)(=O)N3CC=C(c4ccc(C(F)(F)F)cc4)CC3)c2C1 (stereo not drawn) [Example 18, 4-[4-(4-trifluoromethyl-phenyl)-3,6-dihydro-2H-pyridine-1-sulfonyl]-indan-2-carboxylic acid]
15 | < 5 µM | < 5 µM | < 5 µM | O=C(O)C1CCc2ccc(S(=O)(=O)N3CCN(c4ccc(C(F)(F)F)cc4)CC3)cc21 (stereo not drawn) [Example 19, 6-[4-(4-trifluoromethyl-phenyl)-piperazine-1-sulfonyl]-indan-1-carboxylic acid]
16 | < 5 µM | < 5 µM | < 5 µM | O=C(O)C1CCc2ccc(S(=O)(=O)N3CCN(c4ccc(C(F)(F)F)cn4)CC3)cc21 (stereo not drawn) [Example 20, 6-[4-(5-trifluoromethyl-pyridin-2-yl)-piperazine-1-sulfonyl]-indan-1-carboxylic acid]
17 | 5 to 100 µM | 5 to 100 µM | 5 to 100 µM | O=C(O)C1CCc2ccc(S(=O)(=O)N3CCN(c4ccc5c(c4)OCO5)CC3)cc21 (stereo not drawn) [Example 21, 6-(4-Benzo[1,3]dioxol-5-yl-piperazine-1-sulfonyl)-indan-1-carboxylic acid]
18 | 5 to 100 µM | < 5 µM | < 5 µM | O=C(O)C1CCc2ccc(S(=O)(=O)N3CC=C(c4ccc(C(F)(F)F)cc4)CC3)cc21 (stereo not drawn) [Example 22, 6-[4-(4-trifluoromethyl-phenyl)-3,6-dihydro-2H-pyridine-1-sulfonyl]-indan-1-carboxylic acid]
19 | < 5 µM | < 5 µM | < 5 µM | C[C@H]1CN(c2ccc(C(F)(F)F)cn2)CCN1S(=O)(=O)c1ccc2c(c1)C(C(=O)O)CC2 (stereo partly drawn) [Example 23, 6-[2-(S)-methyl-4-(5-trifluoromethyl-pyridin-2-yl)-piperazine-1-sulfonyl]-indan-1-carboxylic acid]
20 | < 5 µM | < 5 µM | < 5 µM | C[C@@H]1CN(c2ccc(C(F)(F)F)cn2)CCN1S(=O)(=O)c1ccc2c(c1)C(C(=O)O)CC2 (stereo partly drawn) [Example 24, 6-[2-(R)-methyl-4-(5-trifluoromethyl-pyridin-2-yl)-piperazine-1-sulfonyl]-indan-1-carboxylic acid]
21 | < 5 µM | < 5 µM | < 5 µM | C[C@@H]1CN(S(=O)(=O)c2ccc3c(c2)C(C(=O)O)CC3)CCN1c1ccc(C(F)(F)F)cn1 (stereo partly drawn) [Example 25, 6-[3-(R)-methyl-4-(5-trifluoromethyl-pyridin-2-yl)-piperazine-1-sulfonyl]-indan-1-carboxylic acid]
22 | < 5 µM | < 5 µM | < 5 µM | O=C(O)C1CCc2ccc(S(=O)(=O)N3CCN(c4ccc(C(F)(F)F)c(F)c4)CC3)cc21 (stereo not drawn) [Example 26, 6-[4-(3-fluoro-4-trifluoromethyl-phenyl)-piperazine-1-sulfonyl]-indan-1-carboxylic acid]

From patent publication US7517884B2 (Kalypsys Inc., priority 1998, dated 2009)
